Measurements reported in patent US11207299B2, “Biphenyl sulfonamide compounds for the treatment of type IV collagen diseases” (Travere Therapeutics, Inc., priority 2018, dated 2021).
“Also recorded” adds a separate entry of the source. Marks after values point to notes of the source that are not given here.

Assays:
[1] = tested on: autosomal Alport mice (COL4A3^−/−); test: Early intervention study in Alport mice (treated from 3-7 weeks of age); assay type: in vivo, mouse
Text: (§1) Vehicle or sparsentan was given daily by oral gavage to autosomal Alport mice (COL4A3^−/−) on the 129/Sv background (male and female) in five separate studies: a pilot study, an early intervention study (treated from 3-7 weeks of age), a late intervention study (treated from 5-7 weeks of age after the onset of glomerular (GM) changes), a lifespan study, and a hearing study (FIG. 1). The early intervention, late intervention, lifespan, and hearing studies also included mice treated with a comparator, losartan, which was given orally at 3-4 weeks of age in the early intervention study, in drinking water at 4-7 weeks of age in the early intervention study, and in drinking water at 5-7 weeks in the late intervention study.
(§2) Efficacy renal endpoints included blood urea nitrogen (BUN), proteinuria (urine protein to creatinine ratio, or UP/C), glomerulosclerosis, tubulointerstitial fibrosis, leucocyte infiltration, and glomerular basement morphology (GBM) using transmission electron microscopy (TEM). Endpoints in the inner ear included auditory brain stem response (ABR) threshold as a measure of noise-induced hearing loss, strial capillary basement membrane thickness, and inner ear pathology by TEM.
In the early intervention study, wild-type and Alport mice were dosed daily by oral gavage with vehicle or sparsentan at 120 mg/kg from 3 to 7 weeks of age (7-8 mice per group), or with losartan at 20 mg/kg by oral gavage from 3-4 weeks of age (during weaning) and 10 mg/kg in drinking water from 4-7 weeks of age.
(§3) For the pilot, early intervention, late intervention, and lifespan studies, spot urine was sampled pre-study and weekly during treatment and analyzed for protein (UP) and creatinine (C) to determine proteinuria (UP/C). At the end of each study the animals were euthanized, blood samples were taken, BUN was measured from serum, and kidneys were harvested for structural and immuno-fluorescent measurements. Glomerulosclerosis was assessed by immunofluorescence (IF) using an antibody to fibronectin (FN). Visual counting of the number of sclerotic glomeruli as a proportion of the total number of glomeruli per slide was used to calculate the percentage of sclerotic glomeruli. Sections were co-stained with an anti-CD45 antibody to indicate leucocyte infiltration. Tubulointerstitial fibrosis was determined by IF of kidney sections using an antibody to collagen 1 (COL1). Tubulointerstitial fibrosis (TIF) scoring was conducted by visual assessment of the COL1 positive area as a percentage of the total cortical area and was performed blinded. The fibrosis scoring (“Fibrosis Score”) was categorized according to visual judgment of percentage of total cortical area, as: 0=<5%, 1=5-10%, 2=10-25%, 3=25-50%, 4=50-75%, or 5=75-100%. Ultrastructural changes in GBM and podocyte morphology were observed using transmission electron microscopy (TEM).

[2] = tested on: autosomal Alport mice (COL4A3^−/−); test: Late intervention study in Alport mice (treated from 5-7 weeks of age); assay type: in vivo, mouse
Text: as §1, §2
In the late intervention study, wild-type or Alport mice (8 mice per group) were dosed for 14 days according to the same methods used in the early intervention study but beginning at 5 weeks of age, i.e., dosed with vehicle, 120 mg/kg of sparsentan, or 10 mg/kg losartan starting at 5 weeks of age for 14 days. In this study, untreated Alport mice at 5 weeks of age were also used as baseline controls.
as §3
For a baseline comparison for late intervention, glomerulosclerosis and fibrosis were determined in kidney samples taken from 5-week-old untreated Alport mice.

[3] = tested on: autosomal Alport mice (COL4A3^−/−); test: Lifespan study in Alport mice; assay type: in vivo, mouse; conditions: dosing as in early intervention study, continued until 10% loss of peak body weight; P<0.05
Text: as §1
In the lifespan study, Alport mice (n=10) were dosed using the same methodology as in the early intervention study, except that dosing was continued until mice had lost 10% of their peak body weight, after which they were euthanized.
For the pilot, early intervention, late intervention, and lifespan studies, spot urine was sampled pre-study and weekly during treatment and analyzed for protein (UP) and creatinine (C) to determine proteinuria (UP/C). At the end of each study the animals were euthanized, blood samples were taken, BUN was measured from serum, and kidneys were harvested for structural and immuno-fluorescent measurements. Glomerulosclerosis was assessed by immunofluorescence (IF) using an antibody to fibronectin (FN). Visual counting of the number of sclerotic glomeruli as a proportion of the total number of glomeruli per slide was used to calculate the percentage of sclerotic glomeruli. Sections were co-stained with an anti-CD45 antibody to indicate leucocyte infiltration. Tubulointerstitial fibrosis was determined by IF of kidney sections using an antibody to collagen 1 (COL1). Tubulointerstitial fibrosis (TIF) scoring was conducted by visual assessment of the COL1 positive area as a percentage of the total cortical area and was performed blinded. […]

[4] = tested on: autosomal Alport mice (COL4A3^−/−); test: Hearing study in Alport mice (ABR, noise exposure, strial capillary basement membrane TEM); assay type: in vivo, mouse
Text: as §1, §2
For the hearing study, wild-type or Alport mice were treated according to daily from 3-8.5 weeks of age by oral gavage with vehicle (0.5% methylcellulose 4000 cps/0.25% Tween® 80 in distilled water) or 120 mg/kg sparsentan or losartan at 20 mg/kg by oral gavage from 3-4 weeks of age (during weaning) and 10 mg/kg in drinking water from 4-7 weeks of age (n=5). The progression of Alport disease was assessed at 7 weeks of age by the amount of proteinuria (via urinalysis reagent strips—data not shown). Strial capillary basement membrane (SCBM) width was analyzed by transmission electron microscopy (TEM), and accumulation of extracellular matrix (ECM) in SCBM was determined by immunofluorescence (IF) microscopy using an antibody to laminin α2. Hearing ability and sensitivity to noise were assessed between 7 and 8 weeks of age by Auditory Brainstem Response (ABR), pre-noise exposure. A subset of each treatment group was then exposed to a metabolic noise stress for 10 hours. Mice receiving the noise treatment were randomly selected for overstimulation with a 106 dB sound pressure level (SPL), narrow band noise (8-16 kHz) for 10 hours, usually 10 PM to 8 AM. The noise exposure was conducted in a sound-isolation booth. A speaker was suspended from the ceiling. Wire cages with individual compartments were located midway between the floor and speaker. Mice were hydrated prior to placement in the cage and were provided free access to food. The noise exposure occurred at 8 weeks of age. The amount of hearing loss caused by the metabolic noise exposure was determined 5 days post-exposure.

[5] = tested on: laminin α2 in stria of Alport mice; test: Immunofluorescence of laminin α2 in stria of Alport mice; assay type: in vivo, mouse; conditions: losartan-treated Alport mice (10 mg/kg), early intervention study
Description: In the pilot study, designed to determine an optimal efficacious dose of sparsentan, Alport mice (3-4 per group) were dosed with vehicle (0.5% methylcellulose 4000 cps/0.25% Tween® 80 in distilled water) or sparsentan at 60 mg/kg or 200 mg/kg from 3 to 7 weeks of age for 28 days. Although 200 mg/kg sparsentan was efficacious in the pilot study, BUN levels were higher than those of Alport mice dosed with 60 mg/kg sparsentan (Table 1; FIG. 2A; FIG. 2B). This observation led to the selection of a 120 mg/kg dose of sparsentan to take forward into the early intervention study. During the pilot study, blood pressure (BP) was measured weekly using the CODA2 tail cuff system. […]
For the hearing study, wild-type or Alport mice were treated according to daily from 3-8.5 weeks of age by oral gavage with vehicle (0.5% methylcellulose 4000 cps/0.25% Tween® 80 in distilled water) or 120 mg/kg sparsentan or losartan at 20 mg/kg by oral gavage from 3-4 weeks of age (during weaning) and 10 mg/kg in drinking water from 4-7 weeks of age (n=5). The progression of Alport disease was assessed at 7 weeks of age by the amount of proteinuria (via urinalysis reagent strips—data not shown). […] Hearing ability and sensitivity to noise were assessed between 7 and 8 weeks of age by Auditory Brainstem Response (ABR), pre-noise exposure. […]

[6] = tested on: murine models of Alport syndrome; conditions: cited from earlier work; for Glomerulosclerosis and interstitial fibrosis in murine models of Alport syndrome: literature (Dufek et al. 2016; Gross et al. 2003)
[7] = Alport mice, losartan 20/10 mg/kg, at 7 wk of age, mean ± SD
[8] = Alport mice late intervention, losartan 10 mg/kg, mean ± SD

Question: Which UP/C ([1]; Alport mice, losartan 20/10 mg/kg from 3 wk, at 4 wk of age, mean ± SD, n = 8) does the source give for `CCCCc1nc(Cl)c(CO)n1Cc1ccc(-c2ccccc2-c2nnn[nH]2)cc1` [losartan, Losartan, reference compound] here?
Answer: The UP/C was 0.6 ± 1.3 mg/mg.

Question: What about the UP/C ([1]; Alport mice, losartan 20/10 mg/kg, at 5 wk of age, mean ± SD) of the same compound?
Answer: Its UP/C is 6.7 ± 4.0 mg/mg.

Question: What about the UP/C ([1]; Alport mice, losartan 20/10 mg/kg, at 6 wk of age, mean ± SD) of the same compound?
Answer: The UP/C was 11.2 ± 5.7 mg/mg.

Question: What about the BUN [1, 7] of the same compound?
Answer: The BUN was 18.2 ± 3.5 mg/dL.

Question: And the “Sclerotic Glomeruli (%)” value [1, 7]?
Answer: Its value is 1.7 ± 3.3 %.

Question: What about the UP/C [1, 7] of the same compound?
Answer: The UP/C was 11.5 ± 7.0 mg/mg.

Question: And the “Fibrosis Score” value ([1]; Alport mice, losartan 20/10 mg/kg, at 7 wk, score 0=<5% to 5=75-100% COL1 area, mean ± SD)?
Answer: Its value is 0.0 ± 0.0.

Question: And the “Development of nephropathy in Alport mice” value ([1]; sparsentan 120 mg/kg 28 days or losartan 20 mg/kg 7 days then 10 mg/kg 21 days, from 3 weeks of age)?
Answer: The value was “prevented”.

Question: And the “UP/C, BUN, glomerulosclerosis, and fibrosis vs. vehicle-treated Alport mice” value ([1]; sparsentan 120 mg/kg or losartan 20/10 mg/kg from 3 weeks of age, P<0.05)?
Answer: The value was “significant attenuation”.

Question: And the TIF or glomerulosclerosis ([1]; sparsentan- or losartan-treated Alport mice, early intervention)?
Answer: Its TIF or glomerulosclerosis is “little to no”.

Question: And the UP/C ([2]; Alport mice late intervention, losartan 10 mg/kg for 14 days from 5 wk of age, mean ± SD, n = 8)?
Answer: The UP/C was 18.1 ± 4.6 mg/mg.

Question: And the BUN [2, 8]?
Answer: The BUN was 15.5 ± 3.4 mg/dL.

Question: And the “GS (% Sclerotic glomeruli)” value [2, 8]?
Answer: The value was 16.0 ± 11.9*^$ %.

Question: And the TIF ([2]; Alport mice late intervention, losartan 10 mg/kg, tubulointerstitial fibrosis score, mean ± SD)?
Answer: Its TIF is 1.0 ± 1.2.

Question: And the “UP/C and fibrosis vs. vehicle-treated Alport mice” value ([2]; losartan 10 mg/kg, late intervention)?
Answer: Its value is “not significant”.

Question: And the “Attenuation of BUN and glomerulosclerosis vs. vehicle-treated Alport mice” value ([2]; losartan 10 mg/kg, late intervention, P<0.05)?
Answer: The value was “significant”.

Question: What about the “Development of fibrosis, CD45^+ leucocyte infiltration, and glomerulosclerosis” value ([2]; sparsentan 120 mg/kg or losartan 10 mg/kg, 5-7 weeks of age) of the same compound?
Answer: The value was “attenuated; also recorded: prevented”.

Question: And the “Lifespan compared to vehicle-treated Alport mice” value [3]?
Answer: The value was “significantly longer; also recorded: significantly greater”.

Question: And the “Hearing ability before noise exposure (ABR)” value ([4]; 7-8-week-old mice, sparsentan 120 mg/kg or losartan 20/10 mg/kg)?
Answer: The value was “did not differ significantly”.

Question: What about the “Increase in strial capillary basement membrane width observed in vehicle-treated Alport mice” value ([4]; Alport mice treated 3-8.5 weeks of age with sparsentan or losartan) of the same compound?
Answer: The value was “prevented”.

Question: And the “mean SCBM width±SD” value ([4]; Alport mice, losartan 20/10 mg/kg from 3 weeks of age, TEM, n=5)?
Answer: The value was 55.0±5.9 nm.

Question: And the “Hearing loss after noise exposure vs vehicle-treated Alport mice” value ([4]; any frequency tested, losartan 20/10 mg/kg)?
Answer: The value was “no significant effect; also recorded: no significant difference”.

Question: What about the “Stria vascularis pathology by TEM” value ([4]; treated Alport mice, FIGS. 14-23) of the same compound?
Answer: The value was “variable pathology”.

Question: And the “Accumulation of laminin α2 in stria” value [5]?
Answer: The value was “did not appear different from vehicle-treated Alport mice”.

Question: With `CCOC(=O)[C@H](CCc1ccccc1)N[C@@H](C)C(=O)N1[C@H](C(=O)O)C[C@@H]2CCC[C@@H]21` [ramipril] as the compound, how does the “Glomerulosclerosis and interstitial fibrosis in murine models of Alport syndrome” value [6] read?
Answer: The value was “ameliorate”.

Question: For `Cc1cc2c(cc1CC(=O)c1sccc1S(=O)(=O)Nc1onc(C)c1Cl)OCO2` [sitaxentan], which “Glomerulosclerosis and interstitial fibrosis in murine models of Alport syndrome” value [6] is on record?
Answer: The value was “ameliorate”.

Question: And the “Basement membrane in the cochlea of the ear in Alport mice” value ([6]; literature (Meehan et al. 2016))?
Answer: Its value is “protect”.
